Assay results: paper PMC12250893, “Systematic Characterization of In Vitro and In Vivo Metabolic Pathways and Identification of Novel Biomarkers of 26 Synthetic Cannabinoids” (Molecules, 2025)

Columns and labels:
[1] = Human liver microsomal incubation (in vitro metabolic model); conditions: HLM, 37 °C 1 h, then UDPGA 30 min; peak area of parent in experimental group vs degradation control group
Experimental: Each of the 26 SCs was configured to 1 mg/mL with acetonitrile. The HLMs, NADPH regeneration solution A, regeneration solution B, and UDPGA solution were thawed at 4 °C. An icebox was prepared, and all additional steps were performed on ice. For this, 10 µL of NADPH regeneration solution A, 2 µL of regeneration solution B, 2 µL of SCs standard, and 10 µL of mixed human liver microsomes were added to 176 µL of 0.1 mol/L phosphate buffer. The mixture was mixed thoroughly and incubated at 37 °C for 1 h. Subsequently, 20 µL of UDPGA solution was added and mixed well, followed by an additional incubation for 30 min. The reaction was stopped by adding 200 µL of ice-cold acetonitrile. Additionally, the negative control group and the degradation control group were set up following the same procedure. […] The unadded components were supplemented with an equal amount of phosphate buffer. All samples were centrifuged at a high speed of 13,500 r for 10 min after reaction termination. The supernatant was collected and subsequently passed through a membrane filter (0.45 μm) prior to sampling.
The samples were separated and analyzed using a UHPLC-Q-Exactive Orbitrap MS system (Thermo Fisher Scientific, Waltham, MA, USA), which comprised a Thermo-Scientific™ Q-Exactive™(Thermo Fisher Scientific, Waltham, MA, USA) quadrupole electrostatic field orbitrap mass spectrometer coupled to a Vanquish ultrahigh-performance liquid chromatography (UHPLC) system (Thermo Fisher Scientific, Waltham, MA, USA) with a heated electrospray ionization HESI source in the positive ionization mode. The samples were separated on an ACQUITY UPLC BEH C18 Column (100 × 2.1 mm, 1.7 μm) with the column temperature maintained at 30 °C. The chromatographic separation was achieved using a gradient elution program with mobile phase A consisting of 0.1% formic acid in water and mobile phase B containing 0.1% formic acid in acetonitrile. The gradient profile was programmed as follows: Initial conditions were maintained at 5% B from 0 to 1 min, followed by a linear increase to 95% B from 1 to 11 min; the 95% B composition was held from 11 to 15.5 min, then decreased back to 5% B from 15.5 to 16 min, and finally maintained at 5% B from 16 to 18 min. The flow rate was set at 0.3 mL/min, and the injection volume was 10 μL for all analyses.
The following HESI source conditions were adopted: Acquisition mode was set to positive ion mode; the capillary temperature was maintained at 325 °C, the auxiliary gas heater temperature was set to 350 °C, and the spray voltage was applied at 3.7 kV. The mass spectrometry analysis was carried out in full-scan (FS) mode to trigger data-dependent acquisition in tandem mass spectrometry (FS-ddMS^2) mode. The FS data acquisition was performed using the following parameters: a resolution of 60,000, an automatic gain control (AGC) target of 1 × 10^6, a scan range of m/z 66.7–1000, and a maximum injection time (IT) of 250 ms. The ddMS^2 data acquisition was performed using the following parameters: a resolution of 30,000; an automatic gain control (AGC) target of 1 × 10^5; normalized collision energies (NCEs) of 20, 40, and 70 eV; and a maximum injection time (IT) of 50 ms.
Data acquisition was executed utilizing Xcalibur 4.3 software (Thermo Fisher Scientific, Waltham, MA, USA). The subsequent analysis of the acquired data was conducted using Thermo Fisher Scientific […] 3.2 software (Thermo Fisher Scientific, Waltham, MA, USA). The workflow’s nodes employed specific parameters: a mass tolerance of 5 ppm, a signal-to-noise threshold of 3, a minimum peak intensity of 1 × 10^5, a maximum peak width of 0.8 min, and a minimum of 3 scans per peak.

[2] = Clinical symptoms of rats in metabolic model; assay type: in vivo, rat; conditions: SD rats, dose 0.05-0.5 mg/kg per Table 6
Experimental: (§1) Sprague-Dawley male rats (200 ± 20 g) were obtained from SPF (Beijing) Biotechnology Co., Ltd. (Beijing, China). The animals were housed under controlled environmental conditions: Temperature was maintained at 20–25 °C, humidity at 50 ± 10%, and a 12/12 h light/dark cycle was applied. They had ad libitum access to standard laboratory chow and filtered water. A two-week acclimatization period was provided before the experiments began. The 26 SC standards were prepared in normal saline at concentrations of 0.5 mg/mL, 0.1 mg/mL, and 0.05 mg/mL. Each rat was weighed before administration, and the injection dose was adjusted based on body weight. The dosing volume for each rat was maintained at approximately 200 µL.
(§2) 162 Sprague-Dawley (SD) rats were randomly divided into 27 groups, with six rats in each group. The control group received an injection of normal saline, while the remaining groups were injected with 26 different types of SCs. The dosage administered was determined based on pre-experimental results, specifically selecting the dose that produced the highest level of metabolites in the blood samples collected 1 h after tail vein injection at concentrations of 0.5 mg/kg, 0.1 mg/kg, and 0.05 mg/kg, as shown in Table 6. Subsequently, tail vein administration was conducted at the specified dosage. The orbital venous blood was taken from the outer canthus of the rat with capillaries at 15 min and 1 h. Feces were collected after the blood. The rats were then sacrificed, and their brains and livers were dissected. Samples were immediately frozen in liquid nitrogen and stored at −80 °C until analysis.

[3] = Metabolite identification, HLM incubation and rat model combined (UHPLC-Q-Exactive Orbitrap MS); set-up: species or system human; rat; conditions: for Characteristic Metabolite: characteristic / defining metabolites by the screening criteria; for Number of Metabolites / Number of Phase I Metabolites / Number of Phase II Metabolites: in vitro (HLM) and in vivo (rat) models together
Experimental: as §1, §2
For blood samples, 0.5 mL of each sample was mixed with 1.0 mL of acetonitrile. For brain samples, 0.2 g of tissue was combined with 0.5 mL of acetonitrile. For liver samples, 0.5 g of tissue was mixed with 0.5 mL of acetonitrile. For feces samples, 0.2 g of sample was combined with 1 mL of acetonitrile-water (3:1) for grinding and homogenization. Each mixture was sonicated for 40 min, allowed to precipitate at 4 °C for 30 min, and then centrifuged at 13,500 rpm for 10 min. The supernatant was filtered using a syringe filter (0.45 μm) for further testing.

Row | SMILES | Conversion Rate [1] | Animal manifestations after tail vein drug injection [2] | Characteristic Metabolite [3] | Number of Metabolites [3] | Number of Phase I Metabolites [3] | Number of Phase II Metabolites [3]
1 | COC(=O)C(NC(=O)c1nn(CCCCCF)c2ccccc12)C(C)(C)C (centres unmarked) [5F-ADB] | 88.1% | hematuria | Ester hydrolysis, dehydrogenation, and acidification metabolites | 25 | 17 | 8
2 | CCOC(=O)C(NC(=O)c1nn(CCCCCF)c2ccccc12)C(C)C (centres unmarked) [5F-EMB-PICA] | 80.6% |  | Ester hydrolysis, amide hydrolysis, and oxidative defluorination metabolite | 19 | 9 | 10
3 | C=CCCCn1nc(C(=O)NC(C(N)=O)C(C)C)c2ccccc21 (centres unmarked) [AB-4en-PINACA] | 98.7% |  | Deamination, hydration, and deamidation metabolites | 18 | 17 | 1
4 | CN1CCCCC1Cn1cc(C(=O)C2C(C)(C)C2(C)C)c2ccccc21 (centres unmarked) [AB-005] | 60.9% |  | Hydroxylation, de-N-alkyl side chain, dehydrogenation, and dihydroxylation metabolites | 17 | 12 | 5
5 | CC(C)C(NC(=O)c1nn(Cc2ccc(F)cc2)c2ccccc12)C(N)=O (centres unmarked) [AB-FUBINACA] | 74.6% |  | Hydrolysis, hydroxylation, and deamination metabolites | 19 | 15 | 4
6 | C=CCCn1nc(C(=O)NC(C(N)=O)C(C)(C)C)c2ccccc21 (centres unmarked) [ADB-3en-BUTINACA] | 98.7% |  | Dihydrodiol, deamination, deamination, and hydroxylation metabolites | 22 | 18 | 4
7 | C=CCCCn1nc(C(=O)NC(C(N)=O)C(C)(C)C)c2ccccc21 (centres unmarked) [ADB-4en-PINACA] | 18.2% |  | Deamination, hydration, dihydrodiol, and deamination metabolites | 30 | 25 | 5
8 | CC(C)(C)C(NC(=O)c1nn(CC2CCCCC2)c2ccccc12)C(N)=O (centres unmarked) [ADB-CHMINACA] | 62.8% | irritable, with unstable gait and tachypnea | Deamination, deamination of N-alkyl side chains, and hydrolytic metabolites | 25 | 18 | 7
9 | CCCCCCn1nc(C(=O)NC(C(N)=O)C(C)(C)C)c2ccccc21 (centres unmarked) [ADB-HEXINACA] | 24.8% |  | Deamination, deamidation, amide hydrolysis, and hydroxylation metabolites | 31 | 24 | 7
10 | CCCCCn1cc(C(=O)NC(C(N)=O)C(C)(C)C)c2cccnc21 (centres unmarked) [ADB-P7AICA] | 42.9% |  | Hydroxylation, deamination, and dehydrogenation metabolites | 40 | 28 | 12
11 | CCCCCn1c(C(=O)c2cccc3ccccc23)nc2ccccc21 [BIM-018] | 93.7% |  | Ketogenic, hydroxylated, and dehydrogenated metabolites | 27 | 13 | 14
12 | O=C(c1cccc2ccccc12)c1nc2ccccc2n1CCCCCF [BIM-2201] | 90.2% |  | Oxidative defluorination, dihydrodiol, and hydroxylated metabolite | 29 | 17 | 12
13 | CCCCCn1cc(C(=O)c2ccc3ccccc3c2)cc1-c1ccccc1F [JWH-307] | 55.2% |  | Hydroxylation, ketogenic, and de-N-alkyl side chain metabolites | 20 | 12 | 8
14 | C=CCCCn1nc(C(=O)NC(C(=O)OC)C(C)(C)C)c2ccccc21 (centres unmarked) [MDMB-4en-PINACA] | 69.7% |  | Dihydrodiol, ester hydrolysis, ketogenic, and amide hydrolysis metabolites | 14 | 12 | 2
15 | CCCCCn1cc(C(=O)C2C(C)(C)C2(C)C)c2ccccc21 [UR-144] | 30.5% |  | Hydroxylation, de-N-alkyl side chains, and ketogenic metabolites | 24 | 15 | 9
